Patent US20150011466A1, “APJ Receptor Compounds” (priority 2012, published 2015)
Like-named read-outs stand apart in the source and are kept apart here. Where a SMILES comes first, the peptide text is derived from it. [ ]: non-standard residue; d: D form. The star is where a group is joined. Palmitoyl = CCCCCCCCCCCCCCCC(=O)*; Aib = CC(C)(N)C(=O)O

Assays:
[1] = Histimine (% vs. 48/40)
[2] = target: T1, APJ receptor (Homo sapiens, UniProt P35414); assay: HTRF cAMP assay, inhibition of NKH477 stimulated cAMP in Human TRex cells expressing APJ upon doxycycline induction (APJ-hTREX); format: cell-based; details: for percent intrinsic activity at 0.3 µM: read-out: % IA (@ 300 nM); for Ranking: class combining EC50 and % histamine
T1 construct: expressed in transfected cells; host or cells: Human TRex cells (doxycycline-inducible)
T1 sequence (P35414 1-380): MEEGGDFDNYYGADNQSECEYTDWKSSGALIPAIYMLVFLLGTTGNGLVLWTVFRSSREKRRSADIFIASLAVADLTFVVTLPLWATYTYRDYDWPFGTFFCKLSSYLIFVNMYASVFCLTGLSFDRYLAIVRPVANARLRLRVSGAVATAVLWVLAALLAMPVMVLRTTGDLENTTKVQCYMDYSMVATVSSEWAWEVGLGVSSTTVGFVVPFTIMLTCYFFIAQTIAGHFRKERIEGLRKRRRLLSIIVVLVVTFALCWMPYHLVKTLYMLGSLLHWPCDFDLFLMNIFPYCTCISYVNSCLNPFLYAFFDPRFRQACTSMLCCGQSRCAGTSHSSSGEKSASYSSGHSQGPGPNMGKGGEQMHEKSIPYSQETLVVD
Summary of the method: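 Cells stimulated with NKH477 and cAMP measured by HTRF competitive immunoassay (cryptate anti-cAMP antibody, d2-labeled cAMP). APJ-hTREX cells induced with […] doxycycline and seeded overnight at 40 k/well.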

CCCCCCCCCCCCCCCC(=O)N[C@H](C(=O)N[C@H](C(=O)N[C@@H](Cc1ccccc1)C(=O)N[C@@H](CCCNC(=N)N)C(=O)N[C@@H](CO)C(=O)N[C@@H](CO)C(=O)N[C@@H](CCC(=O)O)C(=O)N[C@H](CCCCN)C(=O)N[C@@H](CCCNC(=N)N)C(=O)N[C@@H](CCCNC(=N)N)C(=O)N[C@@H](CO)C(=O)N[C@@H](C)C(=O)N1CCC[C@H]1C(=O)N[C@H](C(=O)N[C@@H](Cc1ccccc1)C(=O)N[C@H](C(N)=O)[C@@H](C)CC)[C@@H](C)CC)C(C)C)[C@@H](C)O [Compound 53] (Palmitoyl-TVFRSSE[dK]RRSAPIFI-NH2)
Histimine (% vs. 48/40) [1]: 115% | percent intrinsic activity at 0.3 µM [2]: 75%

CCCCCCCCCCCCCCCC(=O)N[C@H](C(=O)N[C@H](C(=O)N[C@@H](Cc1ccccc1)C(=O)N[C@@H](CCCNC(=N)N)C(=O)N[C@@H](CO)C(=O)N[C@@H](CO)C(=O)N[C@@H](CCC(=O)O)C(=O)N[C@H](CCCCN)C(=O)N[C@@H](CCCNC(=N)N)C(=O)N[C@@H](CCCNC(=N)N)C(=O)N[C@@H](CO)C(=O)N[C@@H](C)C(=O)N[C@@H](CC(=O)O)C(=O)N1CCC[C@H]1C(=O)N[C@@H](Cc1ccccc1)C(=O)N[C@H](C(N)=O)[C@@H](C)CC)C(C)C)[C@@H](C)O [Compound 54] (Palmitoyl-TVFRSSE[dK]RRSADPFI-NH2)
Histimine (% vs. 48/40) [1]: 60% | percent intrinsic activity at 0.3 µM [2]: 46%

CCCCCCCCCCCCCCCC(=O)N[C@H](C(=O)N[C@H](C(=O)N[C@@H](Cc1ccccc1)C(=O)N[C@@H](CCCNC(=N)N)C(=O)N[C@@H](CO)C(=O)N[C@@H](CO)C(=O)N[C@@H](CCC(=O)O)C(=O)N[C@H](CCCCN)C(=O)N[C@@H](CCCNC(=N)N)C(=O)N[C@@H](CCCNC(=N)N)C(=O)N[C@@H](CO)C(=O)N[C@@H](C)C(=O)N[C@@H](CC(=O)O)C(=O)N[C@H](C(=O)N1CCC[C@H]1C(=O)N[C@H](C(N)=O)[C@@H](C)CC)[C@@H](C)CC)C(C)C)[C@@H](C)O [Compound 55] (Palmitoyl-TVFRSSE[dK]RRSADIPI-NH2)
Histimine (% vs. 48/40) [1]: 33% | percent intrinsic activity at 0.3 µM [2]: 43%

CCCCCCCCCCCCCCCC(=O)N[C@H](C(=O)N[C@H](C(=O)N[C@@H](Cc1ccccc1)C(=O)N[C@@H](CCCNC(=N)N)C(=O)N[C@@H](CO)C(=O)N[C@@H](CO)C(=O)N[C@@H](CCC(=O)O)C(=O)N[C@H](CCCCN)C(=O)N[C@@H](CCCNC(=N)N)C(=O)N[C@@H](CCCNC(=N)N)C(=O)N[C@@H](CO)C(=O)N[C@@H](C)C(=O)N[C@@H](CC(=O)O)C(=O)N[C@H](C(=O)N[C@@H](Cc1ccccc1)C(=O)N1CCC[C@H]1C(N)=O)[C@@H](C)CC)C(C)C)[C@@H](C)O [Compound 56] (Palmitoyl-TVFRSSE[dK]RRSADIFP-NH2; C-terminus assumed)
Histimine (% vs. 48/40) [1]: 50% | Ranking [2]: *** (EC50<100 nM and % histamine>35%) | EC50 ([2]; inhibition of NKH477 stimulated cAMP, APJ-hTREX cells, read-out: APJ-hTREX EC50): 15.4 nM | percent intrinsic activity at 0.3 µM [2]: 92%

CCCCCCCCCCCCCCCC(=O)N[C@H](C(=O)NC(C)(C)C(=O)N[C@@H](Cc1ccccc1)C(=O)N[C@@H](CCCNC(=N)N)C(=O)N[C@@H](CO)C(=O)N[C@@H](CO)C(=O)N[C@@H](CCC(=O)O)C(=O)N[C@H](CCCCN)C(=O)N[C@@H](CCCNC(=N)N)C(=O)N[C@@H](CCCNC(=N)N)C(=O)N[C@@H](CO)C(=O)N[C@@H](C)C(=O)N[C@@H](CC(=O)O)C(=O)N[C@H](C(=O)N[C@@H](Cc1ccccc1)C(=O)N[C@H](C(N)=O)[C@@H](C)CC)[C@@H](C)CC)[C@@H](C)O [Compound 57] (Palmitoyl-T[Aib]FRSSE[dK]RRSADIFI-NH2; C-terminus assumed)
Histimine (% vs. 48/40) [1]: 39% | EC50 [2]: 68 nM | Ranking [2]: *** (EC50<100 nM and % histamine>35%) | percent intrinsic activity at 0.3 µM [2]: 77%

CCCCCCCCCCCCCCCC(=O)N[C@H](C(=O)N[C@H](C(=O)N[C@@H](Cc1ccccc1)C(=O)NC(C)(C)C(=O)N[C@@H](CO)C(=O)N[C@@H](CO)C(=O)N[C@@H](CCC(=O)O)C(=O)N[C@H](CCCCN)C(=O)N[C@@H](CCCNC(=N)N)C(=O)N[C@@H](CCCNC(=N)N)C(=O)N[C@@H](CO)C(=O)N[C@@H](C)C(=O)N[C@@H](CC(=O)O)C(=O)N[C@H](C(=O)N[C@@H](Cc1ccccc1)C(=O)N[C@H](C(N)=O)[C@@H](C)CC)[C@@H](C)CC)C(C)C)[C@@H](C)O [Compound 58] (Palmitoyl-TVF[Aib]SSE[dK]RRSADIFI-NH2; C-terminus assumed)
Histimine (% vs. 48/40) [1]: 11% | EC50 [2]: 10000 nM | Ranking [2]: * (EC50>500 nM and % histamine>35%) | percent intrinsic activity at 0.3 µM [2]: 54%

CCCCCCCCCCCCCCCC(=O)N[C@H](C(=O)N[C@H](C(=O)N[C@@H](Cc1ccccc1)C(=O)N[C@@H](CCCNC(=N)N)C(=O)N[C@@H](CO)C(=O)N[C@@H](CO)C(=O)N[C@@H](CCC(=O)O)C(=O)NC(C)(C)C(=O)N[C@@H](CCCNC(=N)N)C(=O)N[C@@H](CCCNC(=N)N)C(=O)N[C@@H](CO)C(=O)N[C@@H](C)C(=O)N[C@@H](CC(=O)O)C(=O)N[C@H](C(=O)N[C@@H](Cc1ccccc1)C(=O)N[C@H](C(N)=O)[C@@H](C)CC)[C@@H](C)CC)C(C)C)[C@@H](C)O [Compound 60] (Palmitoyl-TVFRSSE[Aib]RRSADIFI-NH2; C-terminus assumed)
Histimine (% vs. 48/40) [1]: 26% | EC50 [2]: 167 nM | Ranking [2]: **** (EC50 101-500 nM and % histamine<35%) | percent intrinsic activity at 0.3 µM [2]: 65%

CCCCCCCCCCCCCCCC(=O)N[C@H](C(=O)N[C@H](C(=O)N[C@@H](Cc1ccccc1)C(=O)N[C@@H](CCCNC(=N)N)C(=O)N[C@@H](CO)C(=O)N[C@@H](CO)C(=O)N[C@@H](CCC(=O)O)C(=O)N[C@H](CCCCN)C(=O)NC(C)(C)C(=O)N[C@@H](CCCNC(=N)N)C(=O)N[C@@H](CO)C(=O)N[C@@H](C)C(=O)N[C@@H](CC(=O)O)C(=O)N[C@H](C(=O)N[C@@H](Cc1ccccc1)C(=O)N[C@H](C(N)=O)[C@@H](C)CC)[C@@H](C)CC)C(C)C)[C@@H](C)O [Compound 61, TVFRSSEk(Aib)RSADIFI] (Palmitoyl-TVFRSSE[dK][Aib]RSADIFI-NH2; C-terminus assumed)
Histimine (% vs. 48/40) [1]: 25% | EC50 [2]: 5210 nM | percent intrinsic activity at 0.3 µM [2]: 62%

CCCCCCCCCCCCCCCC(=O)N[C@H](C(=O)N[C@H](C(=O)N[C@@H](Cc1ccccc1)C(=O)N[C@@H](CCCNC(=N)N)C(=O)N[C@@H](CO)C(=O)N[C@@H](CO)C(=O)N[C@@H](CCC(=O)O)C(=O)N[C@H](CCCCN)C(=O)N[C@@H](CCCNC(=N)N)C(=O)NC(C)(C)C(=O)N[C@@H](CO)C(=O)N[C@@H](C)C(=O)N[C@@H](CC(=O)O)C(=O)N[C@H](C(=O)N[C@@H](Cc1ccccc1)C(=O)N[C@H](C(N)=O)[C@@H](C)CC)[C@@H](C)CC)C(C)C)[C@@H](C)O [Compound 62, TVFRSSEkR(Aib)SADIFI] (Palmitoyl-TVFRSSE[dK]R[Aib]SADIFI-NH2)
Histimine (% vs. 48/40) [1]: 25% | percent intrinsic activity at 0.3 µM [2]: 51%

CCCCCCCCCCCCCCCC(=O)N[C@H](C(=O)N[C@H](C(=O)N[C@@H](Cc1ccccc1)C(=O)N[C@@H](CCCNC(=N)N)C(=O)N[C@@H](CO)C(=O)N[C@@H](CO)C(=O)N[C@@H](CCC(=O)O)C(=O)N[C@H](CCCCN)C(=O)N[C@@H](CCCNC(=N)N)C(=O)N[C@@H](CCCNC(=N)N)C(=O)NC(C)(C)C(=O)N[C@@H](C)C(=O)N[C@@H](CC(=O)O)C(=O)N[C@H](C(=O)N[C@@H](Cc1ccccc1)C(=O)N[C@H](C(N)=O)[C@@H](C)CC)[C@@H](C)CC)C(C)C)[C@@H](C)O [Compound 63, TVFRSSEkRR(Aib)ADIFI] (Palmitoyl-TVFRSSE[dK]RR[Aib]ADIFI-NH2)
Histimine (% vs. 48/40) [1]: 86% | percent intrinsic activity at 0.3 µM [2]: 61%
